How the values were obtained:
[1] = tested on: matrix metalloprotease-1 (MMP-1); experiment: MMP-1 inhibitory effect: free MMP-1 in media of UV-irradiated HS68 fibroblasts (kit, Amersham RPN2610); format: cell-based; conditions: 5 μM, UV 30 mJ, treated twice for 48 hours, corrected with control without test substance
Procedure: In order to confirm the inhibitory effect of Ganoderma lucidum extracts extracted with the aqueous cyclodextrin solution according to the present disclosure on matrix metalloprotease-1 (MMP-1) expression increased by ultraviolet rays, fibroblasts cells (HS68) were seeded at a concentration of 0.75*10^5 in each well of a 12 well plate and made to be a starvation state for 24 hours, then washed with phosphate buffered saline and irradiated with UV (30 mJ). Subsequently, as a positive control, 1, 10, and 50 ppm of Ganoderma lucidum extracts extracted with 5 μM of retinoic Acid (RA) and an aqueous cyclodextrin solution were treated twice for 48 hours, and the amount of free MMP-1 in the media was measured using a kit (Amersham, RPN2610).

collagenase = experiment: Collagenase production/expression in human fibroblasts (antibody-based absorbance at 405 nm); format: cell-based; conditions: 5 μM, 24 hours, untreated group = 100
Procedure: The inhibitory ability of Ganoderma lucidum extracts extracted with the aqueous cyclodextrin solution according to the present disclosure on collagenase production was measured in comparison with retinoic acid. Human fibroblasts were added at 5,000 cells/well in a 96-well microtiter plate containing Dulbecco's Modified Eagle's Media (DMEM) medium containing 2.5% fetal bovine serum and incubated in an incubator (5% CO2, 37° C.) until the growth reached 70 to 80%. Then, the Ganoderma lucidum extracts, which were extracted using the 1% β-CD aqueous cyclodextrin solution in combination with ultrasonic extraction, were treated with the cells at a concentration of 100 μg/ml for 24 hours, and then the cell culture solution was collected.
Then, the degree of collagenase production in the thus-collected cell culture solution was measured using a commercially available collagenase measuring instrument (GE Healthcare Life Sciences). […]
The absorbance of the yellowish 96-well plate was measured at 405 nm using an absorptiometer, and the expression level of collagenase was calculated by Calculation Equation 1 below. In particular, the reaction absorbance of the collected cell culture solution in the untreated group was taken as the absorbance of the control group. […]
A: Absorbance of the test substance-treated cell group
B: Absorbance of control group […]

**Q.** For CC1=C(/C=C/C(C)=C/C=C/C(C)=C/C(=O)O)C(C)(C)CCC1 [Retinoic acid, retinoic Acid], which “Extracellular MMP-1 (% of control)” value [1] is on record?
**A.** The value was 66.2% of control.

**Q.** What about the “Degree of Collagenase Expression (%)” value (collagenase) of the same compound?
**A.** The value was 75.0%.
